# Legend:
# [1] = system: Parental CHO cells (Drug Sensitive); test: Doxorubicin growth inhibition, methylene blue staining method, parental drug-sensitive cells; format: cell-based, Chinese hamster; conditions: Cricetulus griseus, doxorubicin only, about 72 hours continuous exposure
# Experimental: Equal numbers of cells of an anchorage dependent mammalian cell line are seeded in growth medium (e.g. alpha MEM plus 10% FBS) into a suitable culture vessel, e.g. plastic 96 well tissue culture plates. A cytotoxic drug (e.g. doxorubicin) is added to the cells in the dishes at various concentrations ranging between 0 and 100 uM. Following about 72 hours of continuous exposure to the cytotoxic agent, the growth medium is decanted and the cells are washed with a suitable buffer, e.g. phosphate buffered saline (PBS). About 2 ml of a solution of 2% methylene blue (dissolve methylene blue in a solution of about 50% ethanol in water) is added to the cells on the dishes. The dye is allowed to contact the cells for about 2 minutes. Excess dye is washed away with cold water and the plates are air dried. The dye stained cells are then solubilized by adding an equal volume to all wells of a solution of a detergent, e.g. 1% N-lauroyl-sarcosine. The amount of dye remaining in the wells directly correlates witht he number of cells in the well. The amount of methylene blue dye in the wells can be measured spectrophotometrically by measuring absorbance at 600 nm using an electronic ELISA plate spectrophotmeter (Minireader II, Dynatech Laboratories, Alexandria, VA). […]
# [2] = system: MDR CHO cells (multidrug-resistant); test: Doxorubicin growth inhibition, methylene blue staining method, multidrug-resistant cells; format: cell-based, Chinese hamster; conditions: Cricetulus griseus, doxorubicin only, about 72 hours continuous exposure
# Description: Multidrug-resistant cells lines are easily obtainable for in vitro determination of drug sensitization by compounds of the present invention, as well as other compounds with similar activity. These cell lines include NIH-OVCAR-3 (ATCC HTB161)., which is commercially available. Other cell lines can be readily developed in accordance with the methods described by Twentyman et al., Br. J. Cancer, 54, 253 (1986). This procedure selects for multidrug-resistant cells by culturing the parental drug sensitive cell line in the continued presence of a cytotoxic drug, for example, doxorubicin.
# Drug sensitive cells will perish while multidrug-resistant cells will survive and grow despite the presence of the drug. Eventually, a multidrug-resistant cell population emerges and can be used in an assay system for the detection of agents which can modify the multidrug-resistance. Many cell lines are suitable as parental cell lines from which multidrug-resistant cells can be selected. […]
# Equal numbers of cells of an anchorage dependent mammalian cell line are seeded in growth medium (e.g. alpha MEM plus 10% FBS) into a suitable culture vessel, e.g. plastic 96 well tissue culture plates. […] The amount of methylene blue dye in the wells can be measured spectrophotometrically by measuring absorbance at 600 nm using an electronic ELISA plate spectrophotmeter (Minireader II, Dynatech Laboratories, Alexandria, VA). […]
# [3] = Nephrotoxicity in an in vivo mouse model; conditions: result in words
Structure (SMILES),IC50 [1] [µM],IC50 [2] [µM],Nephrotoxicity [3]
"COc1cccc2c1C(=O)c1c(O)c3c(c(O)c1C2=O)C[C@@](O)(C(=O)CO)C[C@@H]3O[C@H]1C[C@H](N)[C@H](O)[C@H](C)O1 [Doxorubicin, doxorubicin]",0.17 ± 0.01,11.3 ± 0.51,–
"C/C=C/C[C@@H](C)[C@@H](O)[C@H]1C(=O)N[C@@H](CC)C(=O)N(C)CC(=O)N(C)[C@@H](CC(C)C)C(=O)N[C@@H](C(C)C)C(=O)N(C)[C@@H](C)C(=O)N[C@@H](C)C(=O)N[C@H](C)C(=O)N(C)[C@@H](CC(C)C)C(=O)N(C)[C@@H](CC(C)C)C(=O)N(C)[C@@H](C(C)C)C(=O)N1C [6-MeAla, Cyclo[-((2S,3R,4R,6E)-3-Hydroxy-4-methyl-2-methylamino-6-octenoyl)-L-2-aminobutyryl-sarcosyl-N-methyl-L-leucyl-Valyl-N-methyl-L-alanyl-L-alanyl-D-alanyl-N-methyl-L-leucyl-N-methyl-L-leucyl-N-methyl-L-valyl]]",–,–,lack the nephrotoxic side effects
C/C=C/C[C@@H](C)[C@@H](O)[C@H]1C(=O)N[C@@H](CC)C(=O)N(C)CC(=O)N(C)[C@@H](CC(C)C)C(=O)N[C@@H](C(C)C)C(=O)N(C)[C@@H](CC)C(=O)N[C@@H](C)C(=O)N[C@H](C)C(=O)N(C)[C@@H](CC(C)C)C(=O)N(C)[C@@H](CC(C)C)C(=O)N(C)[C@@H](C(C)C)C(=O)N1C [6-MeAbu],–,–,lack the nephrotoxic side effects

# From patent US5236899A (Merck & Co., Inc., priority 1991, dated 1993)
